This is an account of results in ChEMBL document CHEMBL1142760, “Glycosidase inhibition by 1-glycosyl-4-phenyl triazoles” (Bioorg Med Chem Lett, 2005).

In assay [1] the target is T1, Alpha-galactosidase (Escherichia coli K-12) (UniProt P06720).
T1 sequence (whole entry): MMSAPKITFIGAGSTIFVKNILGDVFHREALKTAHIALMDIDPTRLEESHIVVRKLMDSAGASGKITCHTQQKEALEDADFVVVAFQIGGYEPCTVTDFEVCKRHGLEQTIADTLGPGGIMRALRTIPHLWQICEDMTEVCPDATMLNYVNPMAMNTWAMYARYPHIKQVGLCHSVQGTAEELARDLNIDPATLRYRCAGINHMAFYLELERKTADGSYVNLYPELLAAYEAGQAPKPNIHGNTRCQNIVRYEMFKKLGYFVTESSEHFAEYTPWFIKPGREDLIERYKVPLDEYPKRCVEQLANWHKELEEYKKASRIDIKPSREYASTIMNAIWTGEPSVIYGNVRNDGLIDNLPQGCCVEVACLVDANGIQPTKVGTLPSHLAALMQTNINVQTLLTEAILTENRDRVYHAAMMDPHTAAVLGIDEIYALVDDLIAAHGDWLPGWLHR
As to the kind of experiment: Percent inhibition against Escherichia coli galactosidase at 0.24 mM; n>=3.

The target of assay [2] is T1, Alpha-galactosidase (Escherichia coli K-12). The experiment in a line: Percent inhibition against Escherichia coli galactosidase at 0.24 mM; n>=2.

Where only a bound is given, the exact number is not on record here.

Broadly, the inhibition is how much of the control response was suppressed. A high value points to a response far below the control.

`OC[C@@H]1O[C@@H](n2cc(-c3ccccc3)nn2)[C@@H](O)[C@@H](O)[C@H]1O` had an inhibition in assay [1] of 30%.

`OC[C@H]1NC[C@H](O)[C@@H](O)[C@@H]1O` gave an inhibition in assay [1] below 20%.

In assay [2], `OC[C@@H]1O[C@@H](n2cc(-c3ccccc3)nn2)[C@@H](O)[C@@H](O)[C@@H]1O` had an inhibition below 20%.
